Source: PMC7894522, “Structure Based Design of Bicyclic Peptide Inhibitors of RbAp48” (Angewandte Chemie (International Ed. in English), 2020)
Starred links: 1 amine or outer side, 2 acyl side, 3 side chain; linkers in the order of their positions; H or OH if unused. Positions of bridges follow the written chain, without caps; N, C: chain ends. Residues, ends and D or L forms follow the SMILES beside them. TBMB = c1c(C[*:1])cc(C[*:3])cc1C[*:2]; mXylylene = c1cc(C[*:1])cc(C[*:2])c1; X2 = c1ccc2c(C[*:2])ccc(C[*:1])c2c1; pXylylene = c1cc(C[*:2])ccc1C[*:1]; X4 = N#Cc1cc(C[*:1])cc(C[*:2])c1; X3 = COc1cc(C[*:1])cc(C[*:2])c1; X5 = Brc1cc(C[*:1])cc(C[*:2])c1

Target: RbAp48 (Homo sapiens, UniProt Q09028)
Sequence (Q09028 whole entry): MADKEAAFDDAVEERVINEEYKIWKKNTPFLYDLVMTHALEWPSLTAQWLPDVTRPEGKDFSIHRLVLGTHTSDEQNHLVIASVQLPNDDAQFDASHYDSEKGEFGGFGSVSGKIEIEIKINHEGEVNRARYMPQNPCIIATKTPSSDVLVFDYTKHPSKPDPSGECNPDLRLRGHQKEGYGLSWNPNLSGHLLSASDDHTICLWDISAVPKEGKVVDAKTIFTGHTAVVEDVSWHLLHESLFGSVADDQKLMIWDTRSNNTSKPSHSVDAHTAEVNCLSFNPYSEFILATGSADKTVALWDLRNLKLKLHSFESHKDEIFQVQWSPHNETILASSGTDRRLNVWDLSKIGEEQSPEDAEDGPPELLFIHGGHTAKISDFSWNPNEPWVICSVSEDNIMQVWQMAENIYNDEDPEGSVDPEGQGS
Test: Competitive fluorescence polarization (FP) assay using complex of peptide 1 and RbAp48
Assay type: binding
Set-up: Full length RbAp48 was cloned; His tag followed by 3C cleavage site (N, cleaved yes); made in house; host or cells: Sf9 insect cells
Conditions: Supplemental Table 2; competitive FP, tracer 1 nM, RbAp48 15 nM, pH 7.5, 30 min room temperature; read-out: IC50
Protocol: The binding affinity of our library of synthetic cyclic peptides was evaluated by a competitive fluorescence polarization (FP) assay using a complex formed by peptide 1 and RbAp48. To reduce the length of the peptide it was truncated to the amino acids which seemed most critical according to the crystal structure (residues 676–689, pdb:4pbz). […] We chose to use a cyclization approach to regain affinity, that is, not to induce more interactions but through minimizing the entropic penalty upon binding by reducing the flexibility of the peptide. To this end two amino acids were chosen which are facing one another in the structure (see Figure 1 B/D/E). Two peptides were designed where glutamic acid was used in position 676 (4) or position 680 (5) and lysine in position 688 for both peptides (see Table 1). The macrocycles were formed by connecting the side chains via an amide bond (see Figure 1 D/E). Peptide synthesis was performed on Rink‐amide resin using the Fmoc‐strategy incorporating Fmoc‐L‐Glu(All)‐OH and Fmoc‐L‐Lys(Alloc)‐OH at the sites for cyclization. After completion of the linear synthesis the allyl protecting groups were removed using Pd^0 catalysis and the amide link was formed by using PyBOP. […] Therefore, a range of peptides was synthesized which were cyclized using the same amino acid positions but via a cysteine alkylation strategy (see Figure 1 D/E and Table 1). In this method the residues used for cyclization are replaced with cysteine and benzylic dibromides act as crosslinkers on the unprotected peptides. ^[11] Previous research has shown that such linkers can effectively stabilize cyclic peptides and yield high affinity ligands for protein–protein interaction inhibition. ^[12] Such a linker introduces a xylene group in close vicinity of the hydrophobic patch potentially reconstituting the lost key hydrophobic interactions. To explore a variety of macrocycle conformations we used either ortho‐, meta‐ or para‐substituted dibromides to exchange the linker in both 4 and 5 (see Figure 1 D/E and Table 1). ^[13]
Protein expression and purification
RbAp48 was expressed and purified by the Dortmund Protein Facility. Full length RbAp48 was cloned into a pOPIN vector ligating it to an N-terminal His tag followed by a 3C cleavage site. The protein was expressed from Sf9 cells for 48 h. Cells were harvested and lysed and the protein was purified by loading onto a HisTrap FF crude 5 ml column followed by on-column cleavage using Precission protease. The cleaved protein was then further purified using a HiLoad 26/60 Superdex 200 column.
Fluorescence polarization assay
Fluorescence polarization assays were performed in 384 wells plates in 80 µl volumes. The assay buffer contains 20 mM Tris-HCl, 150 mM NaCl, 0.01% Tween-20 at pH 7.5. The concentration of the fluorescently labelled peptides was 1 nM plates were incubated at room temperature for 30 min before they were read on a Tecan Spark plate reader (λex = 485 nm, λem = 535 nm).
For competitive assays the same conditions were used with a tracer concentration of 1 nM was used and a protein concentration of 15 nM .

IC50	Compound
512 ± 48.4 nM	CC(=O)N[C@H]1CSCc2cccc(c2)CSC[C@@H](C(=O)N[C@@H](C)C(N)=O)NC(=O)[C@@H]2CCCN2C(=O)[C@H](CCCCN)NC(=O)[C@H](Cc2ccc(O)cc2)NC(=O)[C@@H]2CCCN2C(=O)[C@H](Cc2c[nH]cn2)NC(=O)[C@H](CCCNC(=N)N)NC(=O)[C@H](C)NC(=O)[C@H](C)NC(=O)[C@H](CCCNC(=N)N)NC(=O)[C@H](CCCCN)NC(=O)[C@H]([C@@H](C)O)NC1=O [Peptide 26] (Ac-CTKRAARHPYKPCA-NH2; linker 1-13 via mXylylene)
335 ± 65 nM	CC(=O)N[C@H]1CSCc2ccc(cc2)CSC[C@@H](C(=O)N[C@@H](C)C(N)=O)NC(=O)[C@@H]2CCCN2C(=O)[C@H](CCCCN)NC(=O)[C@H](Cc2ccc(O)cc2)NC(=O)[C@@H]2CCCN2C(=O)[C@H](Cc2c[nH]cn2)NC(=O)[C@H](CCCNC(=N)N)NC(=O)[C@H](C)NC(=O)[C@H](C)NC(=O)[C@H](CCCNC(=N)N)NC(=O)[C@H](CCCCN)NC(=O)[C@H]([C@@H](C)O)NC1=O [Peptide 27] (Ac-CTKRAARHPYKPCA-NH2; linker 1-13 via pXylylene)
38.4 ± 3.8 nM	COc1cc2cc(c1)CSC[C@@H](C(=O)N[C@@H](C)C(N)=O)NC(=O)[C@@H]1CCCN1C(=O)[C@H](CCCCN)NC(=O)[C@H](Cc1ccc(O)cc1)NC(=O)[C@@H]1CCCN1C(=O)[C@H](CCCNC(=N)N)NC(=O)[C@H](CCCNC(=N)N)NC(=O)[C@H](C)NC(=O)[C@H](C)NC(=O)[C@H](CCCNC(=N)N)NC(=O)[C@H](CCCCN)NC(=O)[C@H]([C@@H](C)O)NC(=O)[C@@H](NC(C)=O)CSC2 [Peptide 28] (Ac-CTKRAARRPYKPCA-NH2; linker 1-13 via X3 (inferred))
43.8 ± 4.7 nM	CC(=O)N[C@H]1CSCc2cc(C#N)cc(c2)CSC[C@@H](C(=O)N[C@@H](C)C(N)=O)NC(=O)[C@@H]2CCCN2C(=O)[C@H](CCCCN)NC(=O)[C@H](Cc2ccc(O)cc2)NC(=O)[C@@H]2CCCN2C(=O)[C@H](CCCNC(=N)N)NC(=O)[C@H](CCCNC(=N)N)NC(=O)[C@H](C)NC(=O)[C@H](C)NC(=O)[C@H](CCCNC(=N)N)NC(=O)[C@H](CCCCN)NC(=O)[C@H]([C@@H](C)O)NC1=O [Peptide 29] (Ac-CTKRAARRPYKPCA-NH2; linker 1-13 via X4 (inferred))
31 ± 3.7 nM	CC(=O)N[C@H]1CSCc2cc(Br)cc(c2)CSC[C@@H](C(=O)N[C@@H](C)C(N)=O)NC(=O)[C@@H]2CCCN2C(=O)[C@H](CCCCN)NC(=O)[C@H](Cc2ccc(O)cc2)NC(=O)[C@@H]2CCCN2C(=O)[C@H](CCCNC(=N)N)NC(=O)[C@H](CCCNC(=N)N)NC(=O)[C@H](C)NC(=O)[C@H](C)NC(=O)[C@H](CCCNC(=N)N)NC(=O)[C@H](CCCCN)NC(=O)[C@H]([C@@H](C)O)NC1=O [Peptide 30] (Ac-CTKRAARRPYKPCA-NH2; linker 1-13 via X5 (inferred))
40.4 ± 1.5 nM	CC(=O)N[C@H]1CSCc2cc(C)cc(c2)CSC[C@@H](C(=O)N[C@@H](C)C(N)=O)NC(=O)[C@@H]2CCCN2C(=O)[C@H](CCCCN)NC(=O)[C@H](Cc2ccc(O)cc2)NC(=O)[C@@H]2CCCN2C(=O)[C@H](CCCNC(=N)N)NC(=O)[C@H](CCCNC(=N)N)NC(=O)[C@H](C)NC(=O)[C@H](C)NC(=O)[C@H](CCCNC(=N)N)NC(=O)[C@H](CCCCN)NC(=O)[C@H]([C@@H](C)O)NC1=O [Peptide 31] (Ac-CTKRAARRPYKPCA-NH2; linker 1-13 via TBMB (inferred))
43.7 ± 6.4 nM	CC(=O)N[C@H]1CSCc2ccc(c3ccccc23)CSC[C@@H](C(=O)N[C@@H](C)C(N)=O)NC(=O)[C@@H]2CCCN2C(=O)[C@H](CCCCN)NC(=O)[C@H](Cc2ccc(O)cc2)NC(=O)[C@@H]2CCCN2C(=O)[C@H](CCCNC(=N)N)NC(=O)[C@H](CCCNC(=N)N)NC(=O)[C@H](C)NC(=O)[C@H](C)NC(=O)[C@H](CCCNC(=N)N)NC(=O)[C@H](CCCCN)NC(=O)[C@H]([C@@H](C)O)NC1=O [Peptide 32] (Ac-CTKRAARRPYKPCA-NH2; linker 1-13 via X2 (inferred))
153 ± 2.4 nM	CC(=O)N[C@H]1CSCc2cc3cc(c2)CSC[C@@H](C(=O)N[C@@H](CC(N)=O)C(N)=O)NC(=O)[C@@H]2CCCN2C(=O)[C@H](CC(C)C)NC(=O)[C@H](Cc2ccc(O)cc2)NC(=O)[C@@H]2CCCN2C(=O)[C@H](Cc2c[nH]cn2)NC(=O)[C@H](CCCNC(=N)N)NC(=O)[C@H](C)NC(=O)[C@H](CSC3)NC(=O)[C@H](Cc2c[nH]cn2)NC(=O)[C@H](Cc2c[nH]c3ccccc23)NC(=O)[C@@H]2CCCN2C(=O)[C@H](CCCNC(=N)N)NC1=O [Peptide 34] (Ac-CRPWHCARHPYLPCN-NH2; linker 1-6-14 via TBMB)
7480 ± 3020 nM	CC(=O)N[C@H]1CSCc2cc3cc(c2)CSC[C@@H](C(=O)N[C@@H](CC(N)=O)C(N)=O)NC(=O)[C@@H]2CCCN2C(=O)[C@H](CC(C)C)NC(=O)[C@H](Cc2ccc(O)cc2)NC(=O)[C@@H]2CCCN2C(=O)[C@H](Cc2c[nH]cn2)NC(=O)[C@H](CCCNC(=N)N)NC(=O)[C@H](C)NC(=O)[C@H](CSC3)NC(=O)[C@H](Cc2c[nH]cn2)NC(=O)[C@H](Cc2c[nH]c3ccccc23)NC(=O)[C@@H]2CCCN2C1=O [Peptide 35] (Ac-CPWHCARHPYLPCN-NH2; linker 1-5-13 via TBMB)

Same assay, conditions: Table 1; competitive FP, tracer peptide 1 1 nM, RbAp48 15 nM, 20 mM Tris-HCl, 150 mM NaCl, 0.01% Tween-20, pH 7.5, 30 min room temperature; lower limit set by 15 nM protein; read-out: IC50

IC50	Compound
> 10000 nM	CC(=O)N[C@H]1CSCc2cc3cc(c2)CSC[C@@H](C(=O)N[C@@H](CCCCN)C(N)=O)NC(=O)[C@H](CCCNC(=N)N)NC(=O)[C@@H]2CCCN2C(=O)[C@H](C)NC(=O)[C@H]([C@@H](C)O)NC(=O)[C@H](CCCCN)NC(=O)[C@H](Cc2ccc(O)cc2)NC(=O)[C@H](CCCNC(=N)N)NC(=O)[C@H](CSC3)NC(=O)[C@H](C)NC(=O)[C@H](CCCNC(=N)N)NC(=O)[C@@H]2CCCN2C1=O [Peptide 36] (Ac-CPRACRYKTAPRCK-NH2; linker 1-5-13 via TBMB)
12.4 ± 3.2 nM	CC(=O)N[C@H]1CSCc2cc3cc(c2)CSC[C@@H](C(=O)N[C@@H](C)C(N)=O)NC(=O)[C@@H]2CCCN2C(=O)[C@H](CCCCN)NC(=O)[C@H](Cc2ccc(O)cc2)NC(=O)[C@@H]2CCCN2C(=O)[C@H](CCCNC(=N)N)NC(=O)[C@H](CCCNC(=N)N)NC(=O)[C@H](C)NC(=O)[C@H](CSC3)NC(=O)[C@H](CCCNC(=N)N)NC(=O)[C@H](CCCCN)NC(=O)[C@H](C)NC1=O [Peptide 37] (Ac-CAKRCARRPYKPCA-NH2; linker 1-5-13 via TBMB)
263 ± 42.7 nM	CC(=O)N[C@H]1CSCc2cc3cc(c2)CSC[C@@H](C(=O)N[C@@H](C)C(N)=O)NC(=O)[C@@H]2CCCN2C(=O)[C@H](CCCCN)NC(=O)[C@H](Cc2ccc(O)cc2)NC(=O)[C@@H]2CCCN2C(=O)[C@H](CCCNC(=N)N)NC(=O)[C@H](CCCNC(=N)N)NC(=O)[C@H](C)NC(=O)[C@H](CSC3)NC(=O)[C@H](CCCNC(=N)N)NC(=O)[C@H](C)NC(=O)[C@H]([C@@H](C)O)NC1=O [Peptide 38] (Ac-CTARCARRPYKPCA-NH2; linker 1-5-13 via TBMB)
77.4 ± 9.6 nM	CC(=O)N[C@H]1CSCc2cc3cc(c2)CSC[C@@H](C(=O)N[C@@H](C)C(N)=O)NC(=O)[C@@H]2CCCN2C(=O)[C@H](CCCCN)NC(=O)[C@H](Cc2ccc(O)cc2)NC(=O)[C@@H]2CCCN2C(=O)[C@H](CCCNC(=N)N)NC(=O)[C@H](CCCNC(=N)N)NC(=O)[C@H](C)NC(=O)[C@H](CSC3)NC(=O)[C@H](C)NC(=O)[C@H](CCCCN)NC(=O)[C@H]([C@@H](C)O)NC1=O [Peptide 39] (Ac-CTKACARRPYKPCA-NH2; linker 1-5-13 via TBMB)
24.6 ± 3.9 nM	CC(=O)N[C@H]1CSCc2cc3cc(c2)CSC[C@@H](C(=O)N[C@@H](C)C(N)=O)NC(=O)[C@@H]2CCCN2C(=O)[C@H](CCCCN)NC(=O)[C@H](Cc2ccc(O)cc2)NC(=O)[C@@H]2CCCN2C(=O)[C@H](C)NC(=O)[C@H](CCCNC(=N)N)NC(=O)[C@H](C)NC(=O)[C@H](CSC3)NC(=O)[C@H](CCCNC(=N)N)NC(=O)[C@H](CCCCN)NC(=O)[C@H]([C@@H](C)O)NC1=O [Peptide 41] (Ac-CTKRCARAPYKPCA-NH2; linker 1-5-13 via TBMB)

Same assay, conditions: competitive FP assay

FP activity in words	Compound
completely lose affinity	CC(=O)N[C@H]1CSCc2cc3cc(c2)CSC[C@@H](C(=O)N[C@@H](CCCCN)C(N)=O)NC(=O)[C@H](CCCNC(=N)N)NC(=O)[C@@H]2CCCN2C(=O)[C@H](C)NC(=O)[C@H]([C@@H](C)O)NC(=O)[C@H](CCCCN)NC(=O)[C@H](Cc2ccc(O)cc2)NC(=O)[C@H](CCCNC(=N)N)NC(=O)[C@H](CSC3)NC(=O)[C@H](C)NC(=O)[C@H](CCCNC(=N)N)NC(=O)[C@@H]2CCCN2C1=O [Peptide 36] (Ac-CPRACRYKTAPRCK-NH2; linker 1-5-13 via TBMB)
